Test results published in patent publication US7018840B2, “Fluorescent metal sensors, and methods of making and using the same” (Massachusetts Institute of Technology, priority 2001, dated 2006).

Columns and labels:
[1] = Affinity of subject ligand for Zn2+; format: binding
Source text: Fluorescence Zn^2+ Binding Titration (Kd1). The first Kd associated with Zn^2+ binding will be measured by a fluorescence titration as described previously. Spectra of the subject ligand will be acquired by exciting at 490 nm or other suitable wavelength and collecting and integrating from 500–575 nm or other appropriate window. The measurements will be performed in triplicate to ensure accuracy of the Kd value.

[2] = known from the literature; cited from earlier work

Row | SMILES | affinity for Zn^2+ [1] | affinity and specificity for Zn^2+ over Mg^2+ and Ca^2+ [2]
1 | O=C(O)c1ccccc1-c1c2cc(Cl)c(=O)cc-2oc2cc(N(Cc3ccccn3)Cc3ccccn3)ccc12 [compound 30, 9-(o-Carboxyphenyl)-2-chloro-6-[bis(2-pyridylmethyl)amino]-3-xanthanone] | weak | –
2 | c1ccc(CN(CCN(Cc2ccccn2)Cc2ccccn2)Cc2ccccn2)nc1 [TPEN] | – | very high affinity and specificity
